Tests used:
Assay in all cases: biochemical
Design in all cases: DiscoverX KINOMEscan scanMAX competition binding panel, single concentration, percent of control; remaining binding: dose or concentration left out as unconfirmed
Conditions in all cases: KINOMEscan binding, percent of control; read-out: Table S4_SCANMAX REPORT - related to Fig. 1 / Percent Control
[1] = biological target: CSNK2A2 (Homo sapiens, UniProt P19784)
[2] = biological target: MET (Homo sapiens, UniProt P08581)
[3] = biological target: ULK2 (Homo sapiens, UniProt Q8IYT8)
[4] = biological target: PRKD2 (Homo sapiens, UniProt Q9BZL6)
[5] = biological target: EGFR(L861Q) (Homo sapiens, UniProt P00533, L861Q)
[6] = biological target: RET(M918T) (Homo sapiens, UniProt P07949, M918T)
[7] = biological target: T1, CDC2L5 (Homo sapiens, UniProt Q14004)
T1 construct: gene CDK13

[8] = biological target: GSK3A (Homo sapiens, UniProt P49840)
[9] = biological target: CSNK1E (Homo sapiens, UniProt P49674)
[10] = biological target: TNIK (Homo sapiens, UniProt Q9UKE5)
[11] = biological target: IRAK4 (Homo sapiens, UniProt Q9NWZ3)
[12] = biological target: PAK2 (Homo sapiens, UniProt Q13177)
[13] = biological target: EGFR(L747-T751del,Sins) (Homo sapiens, UniProt P00533, DEL747-750/T751S)
[14] = biological target: AAK1 (Homo sapiens, UniProt Q2M2I8)
[15] = biological target: PIK3CB (Homo sapiens, UniProt P42338)
[16] = biological target: CAMK1G (Homo sapiens, UniProt Q96NX5)
[17] = biological target: ANKK1 (Homo sapiens, UniProt Q8NFD2)
[18] = biological target: T2, ERK1 (Homo sapiens, UniProt P27361)
T2 construct: gene MAPK3

[19] = biological target: TYRO3 (Homo sapiens, UniProt Q06418)
Sequence of TYRO3 (Q06418 whole entry): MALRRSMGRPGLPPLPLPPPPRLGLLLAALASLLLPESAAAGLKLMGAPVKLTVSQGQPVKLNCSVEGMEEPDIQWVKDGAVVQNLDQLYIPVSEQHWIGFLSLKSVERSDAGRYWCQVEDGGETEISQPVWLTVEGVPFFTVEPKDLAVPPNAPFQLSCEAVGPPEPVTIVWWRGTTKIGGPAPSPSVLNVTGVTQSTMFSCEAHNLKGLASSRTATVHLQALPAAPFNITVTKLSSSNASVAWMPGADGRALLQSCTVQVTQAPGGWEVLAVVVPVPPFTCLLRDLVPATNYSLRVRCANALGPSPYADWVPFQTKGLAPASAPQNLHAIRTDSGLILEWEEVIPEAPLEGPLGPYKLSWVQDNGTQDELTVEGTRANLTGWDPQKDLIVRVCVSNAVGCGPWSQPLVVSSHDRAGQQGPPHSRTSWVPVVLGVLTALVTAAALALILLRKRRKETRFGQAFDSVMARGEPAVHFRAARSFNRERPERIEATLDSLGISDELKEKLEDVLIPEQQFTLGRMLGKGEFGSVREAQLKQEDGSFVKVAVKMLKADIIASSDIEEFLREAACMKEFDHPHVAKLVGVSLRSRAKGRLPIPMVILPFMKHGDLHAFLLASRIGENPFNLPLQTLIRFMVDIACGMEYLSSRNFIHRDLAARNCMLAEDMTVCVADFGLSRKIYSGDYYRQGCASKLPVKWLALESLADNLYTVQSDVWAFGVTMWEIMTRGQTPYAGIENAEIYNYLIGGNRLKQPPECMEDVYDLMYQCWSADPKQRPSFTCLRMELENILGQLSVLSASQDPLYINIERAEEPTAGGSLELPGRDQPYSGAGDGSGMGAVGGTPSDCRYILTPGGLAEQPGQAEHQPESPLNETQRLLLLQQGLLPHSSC

Sequence of RET(M918T) (P07949 whole entry M918T): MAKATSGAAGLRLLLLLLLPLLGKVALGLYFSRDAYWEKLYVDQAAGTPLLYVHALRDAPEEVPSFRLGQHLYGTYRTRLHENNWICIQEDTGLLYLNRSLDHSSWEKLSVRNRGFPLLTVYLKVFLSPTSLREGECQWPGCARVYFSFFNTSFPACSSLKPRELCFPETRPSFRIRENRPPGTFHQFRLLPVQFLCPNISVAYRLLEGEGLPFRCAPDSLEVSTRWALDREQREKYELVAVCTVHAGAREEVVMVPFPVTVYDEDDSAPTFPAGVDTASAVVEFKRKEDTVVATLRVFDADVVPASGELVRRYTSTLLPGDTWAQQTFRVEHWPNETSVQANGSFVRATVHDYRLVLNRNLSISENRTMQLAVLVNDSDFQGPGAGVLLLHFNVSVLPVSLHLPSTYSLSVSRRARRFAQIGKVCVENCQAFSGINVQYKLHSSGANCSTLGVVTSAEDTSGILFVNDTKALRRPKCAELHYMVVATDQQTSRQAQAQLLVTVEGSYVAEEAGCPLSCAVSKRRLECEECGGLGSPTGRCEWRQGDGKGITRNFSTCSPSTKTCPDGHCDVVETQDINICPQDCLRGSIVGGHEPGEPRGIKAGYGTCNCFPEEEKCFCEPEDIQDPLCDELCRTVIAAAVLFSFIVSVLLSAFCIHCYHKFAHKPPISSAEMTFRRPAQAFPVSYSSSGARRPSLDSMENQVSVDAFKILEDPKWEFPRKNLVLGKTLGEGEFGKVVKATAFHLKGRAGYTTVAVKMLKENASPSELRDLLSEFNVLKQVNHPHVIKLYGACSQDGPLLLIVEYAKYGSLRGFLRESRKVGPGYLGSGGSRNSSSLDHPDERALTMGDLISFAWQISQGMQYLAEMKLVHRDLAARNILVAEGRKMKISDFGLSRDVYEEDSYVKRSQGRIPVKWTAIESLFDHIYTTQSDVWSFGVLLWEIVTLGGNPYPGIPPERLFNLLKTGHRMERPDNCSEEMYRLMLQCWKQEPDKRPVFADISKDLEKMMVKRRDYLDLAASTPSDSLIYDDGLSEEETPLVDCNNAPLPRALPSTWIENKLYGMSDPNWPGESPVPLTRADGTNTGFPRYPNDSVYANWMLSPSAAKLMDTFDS
Sequence of PIK3CB (P42338 whole entry): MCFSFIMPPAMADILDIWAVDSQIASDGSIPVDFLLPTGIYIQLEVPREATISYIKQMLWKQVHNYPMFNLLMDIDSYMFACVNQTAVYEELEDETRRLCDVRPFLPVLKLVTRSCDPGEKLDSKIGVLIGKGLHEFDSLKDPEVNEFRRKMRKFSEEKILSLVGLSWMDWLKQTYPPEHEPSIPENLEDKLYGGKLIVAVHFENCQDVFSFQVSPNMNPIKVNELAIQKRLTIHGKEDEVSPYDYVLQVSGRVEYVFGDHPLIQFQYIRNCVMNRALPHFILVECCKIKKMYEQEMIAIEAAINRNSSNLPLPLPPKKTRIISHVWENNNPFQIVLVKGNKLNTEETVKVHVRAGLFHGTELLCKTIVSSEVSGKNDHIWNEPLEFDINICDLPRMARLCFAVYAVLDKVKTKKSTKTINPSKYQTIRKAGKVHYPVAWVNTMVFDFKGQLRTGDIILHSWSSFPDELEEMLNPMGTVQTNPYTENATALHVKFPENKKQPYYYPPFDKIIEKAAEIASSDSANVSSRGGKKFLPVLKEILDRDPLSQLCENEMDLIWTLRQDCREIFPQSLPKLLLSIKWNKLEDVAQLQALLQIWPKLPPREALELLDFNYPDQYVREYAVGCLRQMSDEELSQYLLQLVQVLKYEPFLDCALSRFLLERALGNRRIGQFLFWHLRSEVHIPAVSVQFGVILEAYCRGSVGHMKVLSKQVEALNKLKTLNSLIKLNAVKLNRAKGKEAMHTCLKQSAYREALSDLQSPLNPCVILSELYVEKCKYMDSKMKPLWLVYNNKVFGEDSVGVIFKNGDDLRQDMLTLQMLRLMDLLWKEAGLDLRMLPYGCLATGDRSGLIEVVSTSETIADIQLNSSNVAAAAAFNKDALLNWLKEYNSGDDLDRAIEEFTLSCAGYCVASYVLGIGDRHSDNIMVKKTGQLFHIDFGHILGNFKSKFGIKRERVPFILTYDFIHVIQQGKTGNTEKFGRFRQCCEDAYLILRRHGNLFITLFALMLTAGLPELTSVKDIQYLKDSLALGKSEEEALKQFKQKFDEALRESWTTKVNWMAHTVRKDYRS
Sequence of CSNK2A2 (P19784 whole entry): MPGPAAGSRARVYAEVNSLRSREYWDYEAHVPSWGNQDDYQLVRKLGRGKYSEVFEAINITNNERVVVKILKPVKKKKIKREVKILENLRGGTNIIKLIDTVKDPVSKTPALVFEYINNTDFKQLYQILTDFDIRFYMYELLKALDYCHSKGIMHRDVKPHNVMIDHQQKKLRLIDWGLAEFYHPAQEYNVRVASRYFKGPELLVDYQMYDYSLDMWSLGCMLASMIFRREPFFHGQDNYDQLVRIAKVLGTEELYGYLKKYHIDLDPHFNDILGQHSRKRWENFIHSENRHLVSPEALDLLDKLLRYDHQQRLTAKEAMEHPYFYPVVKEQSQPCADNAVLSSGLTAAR
Sequence of CAMK1G (Q96NX5 whole entry): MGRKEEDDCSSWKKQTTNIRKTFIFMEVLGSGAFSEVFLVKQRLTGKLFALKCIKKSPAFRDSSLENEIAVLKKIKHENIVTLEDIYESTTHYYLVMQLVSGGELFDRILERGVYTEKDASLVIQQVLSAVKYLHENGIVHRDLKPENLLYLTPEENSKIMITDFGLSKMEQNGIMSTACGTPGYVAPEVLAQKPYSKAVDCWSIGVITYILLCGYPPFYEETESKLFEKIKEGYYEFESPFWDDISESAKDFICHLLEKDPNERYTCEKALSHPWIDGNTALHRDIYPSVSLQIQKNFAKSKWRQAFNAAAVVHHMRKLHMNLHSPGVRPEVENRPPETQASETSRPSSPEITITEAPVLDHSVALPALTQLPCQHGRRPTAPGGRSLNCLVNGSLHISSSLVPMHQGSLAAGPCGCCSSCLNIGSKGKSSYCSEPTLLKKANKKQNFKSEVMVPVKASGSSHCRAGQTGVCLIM
Sequence of PRKD2 (Q9BZL6 whole entry): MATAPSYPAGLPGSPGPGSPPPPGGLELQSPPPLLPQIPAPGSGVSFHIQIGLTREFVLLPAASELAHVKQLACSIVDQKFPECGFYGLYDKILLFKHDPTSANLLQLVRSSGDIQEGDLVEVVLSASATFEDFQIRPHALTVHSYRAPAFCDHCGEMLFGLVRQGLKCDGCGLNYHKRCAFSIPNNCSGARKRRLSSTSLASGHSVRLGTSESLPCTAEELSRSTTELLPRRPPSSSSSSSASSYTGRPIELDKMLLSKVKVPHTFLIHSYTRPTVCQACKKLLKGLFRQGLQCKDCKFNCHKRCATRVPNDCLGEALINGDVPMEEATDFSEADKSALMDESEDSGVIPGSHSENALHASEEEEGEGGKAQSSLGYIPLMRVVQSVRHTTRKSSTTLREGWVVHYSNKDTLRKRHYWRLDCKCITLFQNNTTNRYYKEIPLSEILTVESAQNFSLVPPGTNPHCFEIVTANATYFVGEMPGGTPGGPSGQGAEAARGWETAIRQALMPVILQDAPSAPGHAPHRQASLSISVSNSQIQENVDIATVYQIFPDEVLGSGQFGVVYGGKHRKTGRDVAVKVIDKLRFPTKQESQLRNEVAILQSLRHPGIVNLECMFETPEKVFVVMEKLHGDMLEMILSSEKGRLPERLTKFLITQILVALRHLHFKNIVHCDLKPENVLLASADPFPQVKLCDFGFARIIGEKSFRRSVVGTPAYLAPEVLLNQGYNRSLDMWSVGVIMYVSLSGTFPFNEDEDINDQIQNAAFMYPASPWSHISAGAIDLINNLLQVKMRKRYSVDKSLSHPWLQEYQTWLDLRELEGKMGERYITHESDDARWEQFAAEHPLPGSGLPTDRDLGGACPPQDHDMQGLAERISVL

`c1ccc2c(c1)Sc1ccccc1N2CCN1CCOCC1` [J54] showed a remaining binding [1] of 77%, a remaining binding [2] of 92% and a remaining binding [3] of 100%. It also gave a remaining binding [4] of 95%, a remaining binding [5] of 94% and a remaining binding [6] of 97%. The remaining binding [7] was 92%, the remaining binding [8] was 80% and the remaining binding [9] was 100%. The remaining binding [10] was 98%, the remaining binding [11] was 100% and the remaining binding [12] was 76%. The remaining binding [13] was 92%, the remaining binding [14] was 80% and the remaining binding [15] was 100%. It also gave a remaining binding [16] of 100%, a remaining binding [17] of 100% and a remaining binding [18] of 100%. The remaining binding [19] was 100%.
